From patent US20220267258A1, “ROBENIDINE ANALOGS AS POTENT ANTIMALARIALS AGAINST DRUG-RESISTANT PLASMODIUM FALCIPARUM” (OREGON HEALTH & SCIENCE UNIVERSITY, priority 2021, published 2022)
pIC50: −log10 of the molar value.

How the values were obtained:
P. falciparum strain D6 = experiment: SYBR Green growth inhibition assay, P. falciparum D6; assay type: cell-based, Plasmodium falciparum; conditions: pan-sensitive strain, 72 hr, asynchronous cultures in human erythrocytes; read-out: IC50 D6
Method: The in vitro activity of each compound in the aminoguanidine library was assessed against asynchronous cultures of Plasmodium falciparum parasites replicating within human erythrocytes (Tables 1-3). As the chemical development of robenidine was not discussed in its original publication in 1970^4 and limited structural information is available regarding its mechanism of action,^10 profiling was guided primarily by in vitro potency against the P. falciparum D6 strain cultured in human erythrocytes as described above.
(§1) The following parasite strains were used in this study and obtained through BEI Resources, NIAID, NIH. […] The culture medium used was RPMI-1640, supplemented with 25 mM HEPES buffer, 25 mg/L gentamicin sulfate, 45 mg/L hypoxanthine, 10 mM glucose, 2 mM glutamine, and 0.5% Albumax II (complete medium).^43 Cultures were maintained in a standard low oxygen atmosphere (5% O2, 5% CO2, 90% N2) in an environmental chamber and incubated at 37° C. Cultures were sub-passaged every 3-4 days into a fresh culture flask containing complete media and erythrocytes.
The aminoguanidine series was assessed for in vitro antiplasmodial activity using the fluorescence-based SYBR Green assay described previously by Smilkstein and co-workers.^38 Compounds were evaluated in quadruplicate in flat-bottomed Costar clear 96-well plates (Model #3585). A two-fold serial dilution of each compound was performed across the columns of the test plates starting with 20 μM and ending with a final untreated column to serve as control wells. Asynchronous parasite infected erythrocytes in growth media were added to each well for a total volume of 100 μL, final hematocrit of 2%, and initial parasitemia of 0.2%. […] Test plates were incubated for 72 hr at 37° C. in an environmental chamber with a controlled low oxygen atmosphere (5% O2, 5% CO2, 90% N2). After the incubation period, 100 μL SYBR Green I dye-detergent solution was added to each well, and the plates were incubated at ambient temperature and atmosphere in the dark for at least one hour. Fluorescence was read at 497 nm excitation and 520 nm emission bands using a Spectramax iD3 plate reader. Fluorescence readings were normalized with respect to the untreated control wells representing normal parasite growth and plotted against the logarithm of drug concentration.

P. berghei = conditions: murine species P. berghei, 1970; cited from earlier work
[1] = test system: human hepatoma derived HepG2 cells; experiment: HepG2 cytotoxicity assay (resazurin); assay type: cell-based; conditions: HepG2, 24 hr drug, 24 hr recovery
Method: In this assay, HepG2 cells were incubated with test compounds for 24 hours, followed by a 24-hour recovery period and subsequent staining to evaluate for cytotoxic effects with resazurin. The ratio of the resulting HepG2 IC50 value to the P. falciparum D6 IC50 value can be considered an ‘in vitro therapeutic index,’ or IVTI.
Compounds were prepared as 10 mM stock solutions in DMSO. […] HepG2 cells were added to each well of flat bottom 96-well tissue culture plates at an initial density of 2×10^4 cells per well, and an initial volume of 160 μL complete medium per well. After an overnight incubation at 37° C. to adhere the cells to the culture plates, 40 μL drug solutions in complete medium were applied to each well at a final concentration range of 0 to 200 μM across each plate. Drugs were tested in triplicate or quadruplicate. The cells were incubated for 24 hours at 37° C. and 5% CO2 with the drug solutions, which were then aspirated and replaced with 200 μL per well of complete medium for an additional 24 hour incubation under the same conditions. To each well was added 20 μL of resazurin (Alamar Blue) in PBS buffer to a final concentration of 10 μM, and the plates were incubated for 3 hours. Fluorescence was measured at 560 nm excitation and 590 nm emission bands using a Spectramax iD3 plate reader. Fluorescence readings were normalized with respect to the untreated control wells and plotted against the logarithm of drug concentration.

[2] = murine microsomal stability; conditions: from t1/2, assumed murine hepatic blood flow 90 mL/min/kg
Method: To investigate the relationship between the aminoguanidines' in vivo efficacy and their metabolic properties, the murine microsomal stability of a selection of aminoguanidines was evaluated (Table 6). Robenidine, 16, 21, 1, and the control compound ketanserin were incubated with pooled murine liver microsomes and monitored for degradation by LC/MS/MS for one hour. The concentration vs. time plot for each compound was used to determine its biological half-life (t1/2) and predicted intrinsic clearance (Clint).
Metabolic stability studies of selected aminoguanidines were performed at ChemPartner, Shanghai, China. Compounds were incubated at 37° C. and 1 μM concentration in murine liver microsomes (Corning) for one hour at a protein concentration of 0.5 mg/mL in potassium phosphate buffer at pH 7.4 containing 1.0 mM EDTA. The metabolic reaction was initiated by NADPH and quenched with ice-cold acetonitrile at 15 minute increments up to one hour.

Toxoplasma gondii = conditions: cited from earlier work
P. falciparum A6 = experiment: SYBR Green growth inhibition assay, P. falciparum A6; assay type: cell-based, Plasmodium falciparum; conditions: mutant line resistant to respiratory antagonists, 72 hr; read-out: IC50 A6
Method: (§2) In addition to the drug-sensitive P. falciparum D6 strain, the aminoguanidines were assessed against three drug-resistant strains (Tables 1-3).
as §1
(§3) The aminoguanidine series was assessed for in vitro antiplasmodial activity using the fluorescence-based SYBR Green assay described previously by Smilkstein and co-workers.^38 Compounds were evaluated in quadruplicate in flat-bottomed Costar clear 96-well plates (Model #3585). A two-fold serial dilution of each compound was performed across the columns of the test plates starting with 20 μM and ending with a final untreated column to serve as control wells. Asynchronous parasite infected erythrocytes in growth media were added to each well for a total volume of 100 μL, final hematocrit of 2%, and initial parasitemia of 0.2%. The commercial malaria drugs atovaquone and chloroquine were used as control drugs. Test plates were incubated for 72 hr at 37° C. in an environmental chamber with a controlled low oxygen atmosphere (5% O2, 5% CO2, 90% N2). After the incubation period, 100 μL SYBR Green I dye-detergent solution was added to each well, and the plates were incubated at ambient temperature and atmosphere in the dark for at least one hour. Fluorescence was read at 497 nm excitation and 520 nm emission bands using a Spectramax iD3 plate reader. Fluorescence readings were normalized with respect to the untreated control wells representing normal parasite growth and plotted against the logarithm of drug concentration.

Babesia microti = conditions: oral; cited from earlier work
P. falciparum Dd2 = experiment: SYBR Green growth inhibition assay, P. falciparum Dd2; assay type: cell-based, Plasmodium falciparum; conditions: multi-drug resistant strain, 72 hr; read-out: IC50 Dd2
Method: as §2, §1, §3

P. falciparum Tm90-C2B = experiment: SYBR Green growth inhibition assay, P. falciparum Tm90-C2B; assay type: cell-based, Plasmodium falciparum; conditions: multi-drug resistant clinical isolate, also atovaquone resistant, 72 hr; read-out: IC50 Tm90-C2B
Method: as §2, §1, §3

Plasmodium yoelii = experiment: modified 4-day Peters test, murine malaria; assay type: in vivo, mice
Method: In this modified 4-day Peters test,^41 mice were inoculated with parasites from a donor mouse (day 0), and then dosed orally with drugs on each of the subsequent four days (days 1-4). On day 5 of the experiment, the parasitemia for each mouse was determined microscopically by examining methanol-fixed and Giemsa-stained blood smears. The ED50 represents the interpolated dose of a compound at which parasitemia was suppressed to one half that of untreated controls. Similarly, the ED90 represents the dose at which parasitemia is suppressed ten-fold. Mice were considered cured of their infection if no parasites were detected in the blood 30 days from the first drug administration, and the non-recrudescence dose (NRD) represents the lowest dose to achieve a cure.
The in vivo ED50 and ED90 of selected aminoguanidines was measured using a modified 4-day Peters test. Female CF1 mice from Charles River Laboratories were inoculated intravenously with approximately 2.5-5.0×10^4 parasitized erythrocytes (murine malaria P. yoelii, Kenya strain MR4 MRA-428) from a donor mouse (experiment day zero). On the following four days (experiment days 1-4), solutions of the test compounds in PEG-300 (or PEG-300 only for control mice) were administered by oral gavage once daily. […] Parasitemia of each mouse was determined by microscopic examination of Giemsa stained blood smears on day 5. ED50 and ED90 values were assessed by generating dose-response curves relative to untreated controls using Graphpad Prism (v. 8). Mice were considered cured of malarial infection if they maintained 0% parasitemia at experiment day 30. The procedures involved, together with all matters relating to the care, handling, and housing of the animals used in this study, were approved by the Portland VA Medical Center Institutional Animal Care and Use Committee.

[3] = oral gavage days 1-4, parasitemia day 5

N=C(N/N=C/c1ccc(Cl)cc1)N/N=C/c1ccc(Cl)cc1 [Robenidine]
pIC50 (P. falciparum strain D6): 6.49 | activity in vivo (P. berghei): moderate activity | pIC50 [1]: 4.52 | Predicted Clint [2]: 34.40 mL/min/kg | in vitro IC50 (Toxoplasma gondii): 0.03 µg/mL | pIC50 (P. falciparum A6): 6.39 | murine in vivo non-recrudescence dose (Babesia microti): 100 mg/kg/day | pIC50 (P. falciparum Dd2): 6.09 | pIC50 (P. falciparum Tm90-C2B): 5.88 | P. yoelii ED50 (Plasmodium yoelii; [3]): 1.6 mg/kg/day | P. yoelii ED90 (Plasmodium yoelii; [3]): 4.9 mg/kg/day | P. yoelii NRD (non-recrudescence dose, cure dose) (Plasmodium yoelii; oral, doses up to 25 mg/kg/day, no parasites at day 30): >25 mg/kg/day
